Source: US5843449A, “Proteins and novel peptides derived from autoantigen for use in immunotherapy of autoimmune diseases” (Akzo Nobel N.V., priority 1996, dated 1998)
Read-outs that look alike come from different tables or passages of the source. Residues, ends and D or L forms follow the SMILES beside them.

Legend:
[1] = target: T1, DR4Dw4 (DRB1*0401) HLA-DR molecules (Homo sapiens, UniProt P01903+P01911, A100K/A169T/F76Y/I96L/K127E/L162R/M171V/N62H/P40V/Q125Y/R42H/S133A/S149N/S66Y/V115G/V209L/W38E); experiment: HLA-DR peptide binding assay (competition with biotinylated marker peptide), DR4Dw4; conditions: pH = 5, 50 nM biotin-spacer-IHA(307-319)F marker peptide
T1 construct: endogenous in cells; host or cells: BSM, EBV-transformed B-cell line

DR4Dw14 HLA-DR molecules = experiment: HLA-DR peptide binding assay (competition with biotinylated marker peptide), DR4Dw14; design: species or system human; conditions: pH = 5, 50 nM biotin-spacer-IHA(307-319)F marker peptide

Work on `CC(C)C[C@H](NC(=O)[C@H](CCCCN)NC(=O)[C@H](CC(C)C)NC(=O)[C@@H](NC(=O)[C@H](CC(N)=O)NC(=O)[C@H](CCC(N)=O)NC(=O)[C@H](CCCCN)NC(=O)[C@@H](NC(=O)[C@H](Cc1ccccc1)NC(=O)[C@H](CCCCN)NC(=O)[C@@H]1CCCN1)C(C)C)[C@@H](C)O)C(=O)N[C@@H](C)C(=O)N[C@H](C(=O)O)[C@@H](C)O` [IHA(307-319)F, reference compound] (H-PKFVKQNTLKLAT-OH) yielded an IC50 ([1]; DOT Blot, densitometer, read-out: ^R IC50, DR4Dw4, DOT Blot) of 0.55 µM, an IC50 ([1]; SDS-PAGE, visual inspection, read-out: ^R IC50, DR4Dw4, SDS-PAGE) of 0.3 µM and an IC50 (DR4Dw14 HLA-DR molecules; DOT Blot, densitometer, read-out: ^R IC50, DR4Dw14, DOT Blot) of 0.53 µM. The IC50 (DR4Dw14 HLA-DR molecules; SDS-PAGE, visual inspection, read-out: ^R IC50, DR4Dw14, SDS-PAGE) was 0.3 µM.
